Measurements as given in patent publication US9221838B2, “Inhibitors of AKT activity” (ALMAC DISCOVERY LIMITED, priority 2009, dated 2015).

Tests used:
Type in all cases: biochemical
[1] = target: T1, AKT2 (Homo sapiens, UniProt P31751); assay: AKT Kinase Assay (IMAP fluorescent polarisation) vs AKT2
T1 construct: purchased SignalChem
Method: (§1) Testing of the compounds was performed using an AKT Kinase Assay:
(§2) Activated AKT isoforms 1, 2 and 3 were assayed utilising a 5′ FAM Crosstide (Seq. GRPRTSSFAEG-OH)(SEO ID NO: 1). The extent of kinase phosphorylation was determined by fluorescent polarisation using IMAP progressive binding reagent, which introduces binding beads which allow the reagent to specifically bind to phosphate residues via covalent co-ordination complex bonds.
(§3) iMAP binding solution stops Crosstide/kinase interaction and specifically binds phosphorylated substrates. The degree of phosphorylation is determined by fluorescent polarisation (excitation 485 nm; emission 528 nm) or the reduction in speed of rotation of the excited substrate.
(§4) The following materials were used in the assay: • a) Activated AKT isoforms (SignalChem.) dissolved in Complete Reaction buffer at a pre-determined concentration selected so that the assay was carried out in the linear range. • b) AKT substrate peptide: FAM Crosstide (R7110) Molecular Devices, diluted in complete reaction buffer. • c) iMAP Progressive Screening Express Kit (R8127) Molecular Devices • d) Complete Reaction Buffer containing 0.1% BSA, 10 mM Tris-HCl, 10 mM MgCl2, 0.05% NaN3 and 0.01% phosphate free BSA, 1 mM DTT • e) Progressive Binding Solution containing 75% Buffer A, 25% Buffer B and low volume Binding Reagent which contains the binding entity for the assay • f) ATP diluted in complete reaction buffer • g) Black polystyrene 384 well assay plates (Nunc). • h) Biotek Synergy 4 Hybrid Plate reader.
(§5) 5 μl of test compound was dissolved in DMSO (Sigma Aldrich) and serially diluted in complete reaction buffer to give a fourteen point half log dose response and plated into 384 well black plates. The compound was incubated at room temperature with activated AKT isoform ([…] ) at the pre-determined concentration, for 45 minutes.
(§6) 2.5 μl of ATP solution mixed with 2.5 μl of AKT substrate peptide (FAM Crosstide (R7110) Molecular Devices) were dispensed into each well and the plate centrifuged at 1000 rpm for 20 seconds to ensure homogenous mixing of reagents. The reaction mix was incubated in the dark for one hour at room temperature.
(§7) The kinase reaction was stopped by the addition of Progressive Binding Solution and the mixture allowed to equilibrate for one hour in the dark, at room temperature.
(§8) The fluorescent polarisation generated in each well was determined using a […] Synergy 4 Hybrid plate reader. In brief, each reaction solution was excited at 485 nm with the emission measured at 528 nm in both the parallel and perpendicular pathway.
(§9) The polarisation value generated in each well was calculated by Gen5 software (Biotek) and the % inhibition of kinase activity compared to vehicle control was calculated via GraphPad Prism. IC50 values for each compound were calculated by non-linear regression analysis using Prism software.
(§10) All plates were internally controlled by two methods. Firstly, by calculating the signal:noise ratio; based on kinase polarisation without inhibitor and polarisation generated by complete reaction buffer in the absence of activated kinase. Secondly by determining IC50 values generated by known inhibitors of the AKT isoforms.

[2] = target: T2, AKT3 (Homo sapiens, UniProt Q9Y243); assay: AKT Kinase Assay (IMAP fluorescent polarisation) vs AKT3
T2 construct: purchased SignalChem
Method: as §1, §2, §3, §4, §5, §6, §7, §8, §9, §10

[3] = target: T3, AKT1 (Homo sapiens, UniProt P31749); assay: AKT Kinase Assay (IMAP fluorescent polarisation) vs AKT1
T3 construct: purchased SignalChem
Method: as §1, §2, §3, §4, §5, §6, §7, §8, §9, §10

T2 sequence (Q9Y243 whole entry): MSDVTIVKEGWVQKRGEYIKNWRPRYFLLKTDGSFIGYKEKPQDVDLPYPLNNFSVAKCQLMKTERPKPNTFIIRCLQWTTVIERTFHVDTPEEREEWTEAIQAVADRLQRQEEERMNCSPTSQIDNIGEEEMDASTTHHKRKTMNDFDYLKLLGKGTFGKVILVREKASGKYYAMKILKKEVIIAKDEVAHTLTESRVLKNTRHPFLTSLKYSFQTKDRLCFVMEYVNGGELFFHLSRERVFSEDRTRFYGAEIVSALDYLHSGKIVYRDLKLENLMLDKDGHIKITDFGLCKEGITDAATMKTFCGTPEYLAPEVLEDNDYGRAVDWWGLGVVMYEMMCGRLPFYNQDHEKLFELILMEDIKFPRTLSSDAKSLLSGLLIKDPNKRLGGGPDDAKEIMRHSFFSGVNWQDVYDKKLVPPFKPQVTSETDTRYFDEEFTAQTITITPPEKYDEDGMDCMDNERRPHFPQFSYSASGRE
T3 sequence (P31749 whole entry): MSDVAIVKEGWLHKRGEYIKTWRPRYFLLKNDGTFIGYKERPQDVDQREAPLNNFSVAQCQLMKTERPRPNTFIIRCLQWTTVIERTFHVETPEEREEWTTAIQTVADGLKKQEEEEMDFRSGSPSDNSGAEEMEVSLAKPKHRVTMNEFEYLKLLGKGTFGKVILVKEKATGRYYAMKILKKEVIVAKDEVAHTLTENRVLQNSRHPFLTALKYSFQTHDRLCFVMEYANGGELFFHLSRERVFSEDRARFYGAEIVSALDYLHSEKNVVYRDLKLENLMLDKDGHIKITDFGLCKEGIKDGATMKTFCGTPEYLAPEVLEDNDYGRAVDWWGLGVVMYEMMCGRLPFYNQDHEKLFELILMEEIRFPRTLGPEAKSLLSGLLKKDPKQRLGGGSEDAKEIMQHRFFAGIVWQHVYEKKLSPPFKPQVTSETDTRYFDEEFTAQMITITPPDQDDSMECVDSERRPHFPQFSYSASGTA
T1 sequence (P31751 whole entry): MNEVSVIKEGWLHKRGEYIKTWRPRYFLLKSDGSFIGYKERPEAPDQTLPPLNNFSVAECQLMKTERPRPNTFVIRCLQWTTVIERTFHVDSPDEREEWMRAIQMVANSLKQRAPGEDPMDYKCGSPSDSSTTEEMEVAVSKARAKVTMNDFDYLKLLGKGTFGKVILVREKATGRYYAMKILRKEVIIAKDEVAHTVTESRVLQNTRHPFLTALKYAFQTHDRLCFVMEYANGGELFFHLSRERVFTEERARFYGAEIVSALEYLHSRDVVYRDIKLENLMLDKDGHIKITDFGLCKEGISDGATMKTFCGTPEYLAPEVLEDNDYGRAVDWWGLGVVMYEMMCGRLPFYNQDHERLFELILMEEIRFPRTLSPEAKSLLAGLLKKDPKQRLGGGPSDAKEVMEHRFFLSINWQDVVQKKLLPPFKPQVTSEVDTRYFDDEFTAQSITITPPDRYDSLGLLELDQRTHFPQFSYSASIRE

Compound | IC50 [1] [µM] | IC50 [2] [µM] | IC50 [3] [µM]
N#CCN1c2cc(-c3ccccc3)c(-c3ccc(C4(N)CCC4)cc3)nc2OCS1(=O)=O [Example 76, 2-(6-(4-(1-aminocyclobutyl)phenyl)-2,2-dioxido-7-phenyl-1H-pyrido[3,2-e][1,3,4]oxathiazin-1-yl)acetonitrile] | ≤ 0.1 | > 10 | 0.1 to 1
Cn1cc(N2C(=O)COc3nc(-c4ccc(C5(N)CCC5)cc4)c(-c4ccccc4)cc32)cn1 [Example 83, 6-(4-(1-aminocyclobutyl)phenyl)-1-(1-methyl-1H-pyrazol-4-yl)-7-phenyl-1H-pyrido[2,3-b][1,4]oxazin-2(3H)-one] | 1 to 10 | 1 to 10 | 1 to 10
NC1(c2ccc(-c3nc4c(cc3-c3ccccc3)-n3cnnc3CO4)cc2)CCC1 [Example 39, 1-(4-(8-phenyl-4H-pyrido[2,3-b][1,2,4]triazolo[4,3-d][1,4]oxazin-7-yl)phenyl)cyclobutanamine] | 1 to 10 | > 10 | 0.1 to 1
NC1(c2ccc(-c3nc4c(cc3-c3ccccc3)N(C3CCOCC3)C(=O)CO4)cc2)CCC1 [Example 65, 6-(4-(1-aminocyclobutyl)phenyl)-7-phenyl-1-(tetrahydro-2H-pyran-4-yl)-1H-pyrido[2,3-b][1,4]oxazin-2(3H)-one] | 1 to 10 | > 10 | 1 to 10
CC12CCc3nc(-c4ccc(C5(N)CCC5)cc4)c(-c4ccccc4)cc3C1=NNC2=O (stereo not drawn) [Example 8, 7-(4-(1-aminocyclobutyl)phenyl)-3a-methyl-8-phenyl-4,5-dihydro-2H-pyrazolo[3,4-f]quinolin-3(3aH)-one] | 0.1 to 1 | > 10 | 0.1 to 1
NC1(c2ccc(-c3nc4c(cc3-c3ccccc3)C(=O)COC4)cc2)CCC1 [Example 127, 2-(4-(1-aminocyclobutyl)phenyl)-3-phenyl-6,8-dihydro-5H-pyrano[3,4-b]pyridin-5-one] | > 10 | > 10 | 1 to 10
NC1(c2ccc(-c3nc4c(cc3-c3ccccc3)-n3c(n[nH]c3=O)CO4)cc2)CCC1 [Example 38, 7-(4-(1-aminocyclobutyl)phenyl)-8-phenyl-2,4-dihydro-1H-pyrido[2,3-b][1,2,4]triazolo[4,3-d][1,4]oxazin-1-one] | 0.1 to 1 | 1 to 10 | 0.1 to 1
COCC1Oc2nc(-c3ccc(C4(N)CCC4)cc3)c(-c3ccccc3)cc2N(C)C1=O (stereo not drawn) [Example 96, 6-(4-(1-aminocyclobutyl)phenyl)-3-(methoxymethyl)-1-methyl-7-phenyl-1H-pyrido[2,3-b][1,4]oxazin-2(3H)-one] | 1 to 10 | > 10 | 0.1 to 1
CC1(C)CC(=O)c2cc(-c3ccccc3)c(-c3ccc(C4(N)CCC4)cc3)nc2C1 [Example 18, 2-(4-(1-aminocyclobutyl)phenyl)-7,7-dimethyl-3-phenyl-7,8-dihydroquinolin-5(6H)-one] | 1 to 10 | > 10 | 1 to 10
C[C@]1(O)C[C@@](N)(c2ccc(-c3nc4c(cc3-c3ccccc3)N(CC3CC3)C(=O)CO4)cc2)C1 [Example 144, 6-(4-((1r,3r)-1-amino-3-hydroxy-3-methylcyclobutyl)phenyl)-1-(cyclopropylmethyl)-7-phenyl-1H-pyrido[2,3-b][1,4]oxazin-2(3H)-one] | ≤ 0.1 | 0.1 to 1 | 0.1 to 1
CC(C#N)N1C(=O)COc2nc(-c3ccc(C4(N)CCC4)cc3)c(-c3ccccc3)cc21 (stereo not drawn) [Example 54, 2-(6-(4-(1-aminocyclobutyl)phenyl)-2-oxo-7-phenyl-2,3-dihydro-1H-pyrido[2,3-b][1,4]oxazin-1-yl)propanenitrile] | 0.1 to 1 | 1 to 10 | 0.1 to 1
CN1C(=O)COc2nc(-c3ccc([C@]4(N)C[C@@H](O)C4)cc3)c(-c3ccccc3)cc21 [Example 97, 6-(4-((1s,3s)-1-amino-3-hydroxycyclobutyl)phenyl)-1-methyl-7-phenyl-1H-pyrido[2,3-b][1,4]oxazin-2(3H)-one] | 1 to 10 | 1 to 10 | 0.1 to 1
NC1(c2ccc(-c3nc4c(cc3-c3ccccc3)-n3c(nnc3-c3ccccc3)CO4)cc2)CCC1 [Example 129, 1-(4-(1,8-diphenyl-4H-pyrido[2,3-b][1,2,4]triazolo[4,3-d][1,4]oxazin-7-yl)phenyl)cyclobutanamine] | 1 to 10 | 1 to 10 | 0.1 to 1
NC1(c2ccc(-c3nc4c(cc3-c3ccccc3)C(=O)CCC4)cc2)CCC1 [Example 1, 2-(4-(1-aminocyclobutyl)phenyl)-3-phenyl-7,8-dihydroquinolin-5(6H)-one] | 1 to 10 | > 10 | 1 to 10
CN1C(=O)COc2nc(-c3ccc([C@]4(N)C[C@](C)(O)C4)cc3)c(-c3ccccc3)cc21 [Example 113, 6-(4-((1r,3r)-1-amino-3-hydroxy-3-methylcyclobutyl)phenyl)-1-methyl-7-phenyl-1H-pyrido[2,3-b][1,4]oxazin-2(3H)-one] | 0.1 to 1 | 1 to 10 | ≤ 0.1
CS(=O)(=O)CN1C(=O)COc2nc(-c3ccc(C4(N)CCC4)cc3)c(-c3ccccc3)cc21 [Example 82, 6-(4-(1-aminocyclobutyl)phenyl)-1-(methylsulfonylmethyl)-7-phenyl-1H-pyrido[2,3-b][1,4]oxazin-2(3H)-one] | ≤ 0.1 | 1 to 10 | 1 to 10
NC1(c2ccc(-c3nc4c(cc3-c3ccccc3)N(CCO)C(=O)CO4)cc2)CCC1 [Example 68, 6-(4-(1-aminocyclobutyl)phenyl)-1-(2-hydroxyethyl)-7-phenyl-1H-pyrido[2,3-b][1,4]oxazin-2(3H)-one] | 0.1 to 1 | > 10 | 0.1 to 1
CN1CCC(=O)N(C)c2cc(-c3ccccc3)c(-c3ccc(C4(N)CCC4)cc3)nc21 [Example 111, 7-(4-(1-aminocyclobutyl)phenyl)-1,5-dimethyl-8-phenyl-4,5-dihydro-1H-pyrido[2,3-b][1,4]diazepin-2(3H)-one] | 1 to 10 | > 10 | 1 to 10
Cn1ncc2c1-c1cc(-c3ccccc3)c(-c3ccc(C4(N)CCC4)cc3)nc1CC2 [Example 6, 1-(4-(1-methyl-8-phenyl-4,5-dihydro-1H-pyrazolo[3,4-f]quinolin-7-yl)phenyl)cyclobutanamine] | 1 to 10 | 1 to 10 | 0.1 to 1
CN1C(=O)COc2nc(-c3ccc(C4(N)CCC4)cc3)c(-c3ccsc3)cc21 [Example 125, 6-(4-(1-aminocyclobutyl)phenyl)-1-methyl-7-(thiophen-3-yl)-1H-pyrido[2,3-b][1,4]oxazin-2(3H)-one] | 1 to 10 | 1 to 10 | 0.1 to 1
Cc1nc2c([nH]1)CCc1nc(-c3ccc(C4(N)CCC4)cc3)c(-c3ccccc3)cc1-2 [Example 15, 1-(4-(2-methyl-8-phenyl-4,5-dihydro-3H-imidazo[4,5-f]quinolin-7-yl)phenyl)cyclobutanamine] | 1 to 10 | 1 to 10 | 0.1 to 1
NC1(c2ccc(-c3nc4c(cc3-c3ccccc3)NC(=O)CCN4)cc2)CCC1 [Example 104, 7-(4-(1-aminocyclobutyl)phenyl)-8-phenyl-4,5-dihydro-1H-pyrido[2,3-b][1,4]diazepin-2(3H)-one] | 1 to 10 | > 10 | 0.1 to 1
CC(C)CN1C(=O)COc2nc(-c3ccc(C4(N)CCC4)cc3)c(-c3ccccc3)cc21 [Example 102, 6-(4-(1-aminocyclobutyl)phenyl)-1-isobutyl-7-phenyl-1H-pyrido[2,3-b][1,4]oxazin-2(3H)-one] | ≤ 0.1 | 1 to 10 | 0.1 to 1
NC1(c2ccc(-c3nc4c(cc3-c3ccccc3)N(CC(F)(F)F)C(=O)CO4)cc2)CCC1 [Example 60, 6-(4-(1-aminocyclobutyl)phenyl)-7-phenyl-1-(2,2,2-trifluoroethyl)-1H-pyrido[2,3-b][1,4]oxazin-2(3H)-one] | ≤ 0.1 | 1 to 10 | 0.1 to 1
